Broadly, the MIC is the smallest concentration in the dilution series that meets the test's criterion for growth inhibition. A higher MIC goes with weaker potency. Broadly, the IC50 is the point on the concentration scale where inhibition reaches its midpoint. As usually defined, the Ki is the equilibrium dissociation constant of an inhibitor or competing ligand from its target. Low readings indicate higher affinity, high ones lower affinity.

Values after ≈ are worked out from the molar mass of the structure shown.

The values that follow come from ChEMBL document CHEMBL4392848, “Proline-based hydroxamates targeting the zinc-dependent deacetylase LpxC: Synthesis, antibacterial properties, and docking studies” (Bioorg Med Chem, 2019).

One test relates to Enterobacter cloacae. The experiment in a line: Antibacterial activity against Enterobacter cloacae assessed as diameter of inhibition zone measured after 24 hrs by agar disc diffusion method. The format is functional. Background: Agar diffusion results depend on both activity and mobility in agar.
In a further test the test system is Proteus mirabilis. The experiment in a line: Antibacterial activity against Proteus mirabilis assessed as diameter of inhibition zone measured after 24 hrs by agar disc diffusion method. The format is functional.
The next test concerns Proteus vulgaris. The experiment in a line: Antibacterial activity against Proteus vulgaris assessed as diameter of inhibition zone measured after 24 hrs by agar disc diffusion method. The format is functional.
Test [1] relates to Escherichia coli. The test can be described thus: Antibacterial activity against Escherichia coli BL21(DE3) measured after 20 hrs by microdilution method. The format is functional.
The subject of test [2] is Escherichia coli. The test can be described thus: Antibacterial activity against Escherichia coli D22 assessed as diameter of inhibition zone measured after overnight incubation by agar disc diffusion method. The format is functional.
A further test relates to Citrobacter freundii. The experiment in a line: Antibacterial activity against Citrobacter freundii assessed as diameter of inhibition zone measured after 24 hrs by agar disc diffusion method. The format is functional.
For another test, the system named is Klebsiella oxytoca. The experiment in a line: Antibacterial activity against Klebsiella oxytoca assessed as diameter of inhibition zone measured after 24 hrs by agar disc diffusion method. The format is functional.
The next test has as its system Klebsiella pneumoniae. The experiment in a line: Antibacterial activity against Klebsiella pneumoniae assessed as diameter of inhibition zone measured after 24 hrs by agar disc diffusion method. The format is functional.
The test system of test [3] is Escherichia coli. The experiment in a line: Antibacterial activity against Escherichia coli BL21(DE3) assessed as diameter of inhibition zone measured after overnight incubation by agar disc diffusion method. The format is functional.
The next test relates to Pseudomonas aeruginosa. The experiment in a line: Antibacterial activity against Pseudomonas aeruginosa assessed as diameter of inhibition zone measured after 24 hrs by agar disc diffusion method. The format is functional.
Another test has as its system Klebsiella aerogenes. The test can be described thus: Antibacterial activity against Enterobacter aerogenes assessed as diameter of inhibition zone measured after 24 hrs by agar disc diffusion method. The format is functional.
In test [4] the test system is Escherichia coli. The test can be described thus: Antibacterial activity against Escherichia coli D22 measured after 20 hrs by microdilution method. The format is functional. The settings on record: D22, 20 h.
A short description of test [5]: Inhibition of Escherichia coli LpxC C63A mutant using UDP-3-O-[(R)-3-hydroxymyristoyl]-N-acetylglucosamine as substrate measured after 30 mins by fluorescence based microplate assay.

As to `COc1ccc(C#Cc2ccc(C(=O)N3C[C@H](O)C[C@H]3C(=O)NO)cc2)cc1`, the “diameter of the inhibition zone (DIZ)” value in the test with Enterobacter cloacae is <6 mm; with Proteus mirabilis it was 7 mm; with Proteus vulgaris it was 8 mm; with Escherichia coli [2] it was 9.7 mm; in the test on Citrobacter freundii it was 7 mm; in the test with Klebsiella oxytoca, 7 mm. The “diameter of the inhibition zone (DIZ)” value with Klebsiella pneumoniae, in the test on Escherichia coli [3], in the test with Pseudomonas aeruginosa and with Klebsiella aerogenes was <6 mm throughout. Further, the figures for the MIC against Escherichia coli [1] and against Escherichia coli [4] were > 256 µM and 64 µM (≈ 24.3 µg/mL), respectively.

On to `Nc1ccc(C#Cc2ccc(C(=O)N3C[C@@H](O)C[C@H]3C(=O)NO)cc2)cc1`, for which the “diameter of the inhibition zone (DIZ)” value is <6 mm in the test with Enterobacter cloacae; 8 mm with Proteus mirabilis; <6 mm with Proteus vulgaris; 13 mm with Escherichia coli [2]; <6 mm with Citrobacter freundii; 8 mm with Klebsiella oxytoca. Further, the “diameter of the inhibition zone (DIZ)” value with Klebsiella pneumoniae, in the test with Escherichia coli [3], in the test with Pseudomonas aeruginosa and in the test on Klebsiella aerogenes was <6 mm each time. Further, the minimum inhibitory concentration (MIC) in the test on Escherichia coli [1] is > 256 µM; in the test with Escherichia coli [4], 128 µM (≈ 46.8 µg/mL).

Consider `O=C(NO)[C@@H]1CCCN1C(=O)c1ccc(C#Cc2ccc(CN3CCS(=O)(=O)CC3)cc2)cc1`, for which the “diameter of the inhibition zone (DIZ)” value is recorded as 10 mm in the test with Enterobacter cloacae; 9 mm in the test with Proteus mirabilis; 10 mm in the test on Proteus vulgaris; 17 mm in the test with Escherichia coli [2]; <6 mm in the test on Citrobacter freundii; <6 mm in the test with Klebsiella oxytoca. Further, the “diameter of the inhibition zone (DIZ)” value with Klebsiella pneumoniae is recorded as 11 mm; in the test on Escherichia coli [3], 10.7 mm; in the test on Pseudomonas aeruginosa, <6 mm; in the test on Klebsiella aerogenes, 8 mm. Besides, the MIC was > 256 µM against Escherichia coli [1] and 64 µM (≈ 30.8 µg/mL) in the test with Escherichia coli [4]. For the same compound, the IC50 in test [5] amounted to 17.1 µM. The inhibition constant Ki in test [5] worked out at 2.4 µM.

`O=C(NO)[C@@H]1C[C@@H](O)CN1C(=O)c1ccc(C#Cc2ccccc2)cc1`: the MIC with Escherichia coli [1] was > 256 µM; against Escherichia coli [4], 128 µM (≈ 44.8 µg/mL). Moreover, the results for the “diameter of the inhibition zone (DIZ)” value in the test with Escherichia coli [2] and in the test with Escherichia coli [3] were 14 mm and <6 mm, respectively. Further, the midpoint of inhibition in test [5], the IC50, lay at 103 µM. Further, the Ki in test [5] stood at 14.2 µM.

For the compound `O=C(NO)[C@@H]1C[C@H](F)CN1C(=O)c1ccc(C#Cc2ccccc2)cc1`, the minimal inhibitory concentration (MIC) is > 256 µM against Escherichia coli [1] and 128 µM (≈ 45.1 µg/mL) against Escherichia coli [4]. Besides, the “diameter of the inhibition zone (DIZ)” value was 13.3 mm in the test on Escherichia coli [2] and <6 mm in the test with Escherichia coli [3]. Moreover, the IC50 in test [5] is 65.9 µM. The same compound showed a Ki in test [5] of 9.1 µM.

Take `O=C(NO)[C@H]1O[C@@H](c2ccc(C#Cc3ccc(CN4CCOCC4)cc3)cc2)[C@@H](O)[C@H]1O`: the figures for the MIC against Escherichia coli [1] and against Escherichia coli [4] were > 256 µM and 16 µM (≈ 7.02 µg/mL), respectively. In addition, the “diameter of the inhibition zone (DIZ)” value in the test on Escherichia coli [2] was 13.2 mm; in the test with Escherichia coli [3], <6 mm. The IC50 in test [5] was > 200 µM. Further, the Ki in test [5] was > 27.6 µM.

For `O=C(NO)[C@@H]1O[C@@H](c2ccc(C#Cc3ccc(CN4CCOCC4)cc3)cc2)[C@@H](O)[C@H]1O`, the MIC with Escherichia coli [1] is > 256 µM; in the test on Escherichia coli [4], 8 µM (≈ 3.51 µg/mL). Also, the “diameter of the inhibition zone (DIZ)” value is recorded as 22.1 mm in the test with Escherichia coli [2] and <6 mm in the test with Escherichia coli [3]. The compound further came in with a concentration for half-maximal inhibition (IC50) in test [5] of 10 µM. This compound also came in with a Ki in test [5] of 1.4 µM.

On to `CN(C)c1ccc(C#Cc2ccc(C(=O)N3C[C@H](O)C[C@H]3C(=O)NO)cc2)cc1`, for which the “diameter of the inhibition zone (DIZ)” value with Enterobacter cloacae was <6 mm; with Proteus mirabilis, 8 mm; in the test with Proteus vulgaris, <6 mm; with Escherichia coli [2], 14 mm; with Citrobacter freundii it was 8 mm; in the test on Klebsiella oxytoca it was 8 mm. The “diameter of the inhibition zone (DIZ)” value is 7 mm in the test on Klebsiella pneumoniae, <6 mm with Escherichia coli [3], <6 mm in the test on Pseudomonas aeruginosa and 10 mm in the test on Klebsiella aerogenes. The minimal inhibitory concentration (MIC) against Escherichia coli [1] turned out to be 256 µM (≈ 101 µg/mL); in the test with Escherichia coli [4] it was 32 µM (≈ 12.6 µg/mL).

With `O=C(NO)[C@@H]1C[C@H](O)[C@H](c2ccc(C#Cc3ccc(CN4CCOCC4)cc3)cc2)O1`, the MIC was > 256 µM in the test on Escherichia coli [1] and 16 µM (≈ 6.76 µg/mL) against Escherichia coli [4]. Also, the results for the “diameter of the inhibition zone (DIZ)” value with Escherichia coli [2] and with Escherichia coli [3] were 15.3 mm and <6 mm, respectively. Also, in test [5], the IC50 worked out at 87 µM. This compound also displayed an inhibitory constant (Ki) in test [5] of 12 µM.

Turning to `N[C@H]1C[C@@H](C(=O)NO)N(C(=O)c2ccc(C#Cc3ccc(CN4CCOCC4)cc3)cc2)C1`, the “diameter of the inhibition zone (DIZ)” value with Enterobacter cloacae is recorded as <6 mm; in the test on Proteus mirabilis, 7 mm; in the test with Proteus vulgaris, <6 mm; with Escherichia coli [2], 20 mm; in the test with Citrobacter freundii it was 8 mm; with Klebsiella oxytoca, 13 mm. Besides, the “diameter of the inhibition zone (DIZ)” value was determined as 9 mm in the test with Klebsiella pneumoniae, 7.8 mm in the test on Escherichia coli [3], 10 mm in the test with Pseudomonas aeruginosa and 11 mm in the test on Klebsiella aerogenes. In addition, the MIC is 256 µM (≈ 115 µg/mL) with Escherichia coli [1] and 64 µM (≈ 28.7 µg/mL) in the test with Escherichia coli [4].

`CC1(C)O[C@@H]2[C@H](O1)[C@H](c1ccc(C#Cc3ccc(CN4CCOCC4)cc3)cc1)O[C@@H]2C(=O)NO`: the MIC in the test with Escherichia coli [1] is > 256 µM; against Escherichia coli [4] it was 128 µM (≈ 61.3 µg/mL). Besides, the figures for the “diameter of the inhibition zone (DIZ)” value in the test with Escherichia coli [2] and with Escherichia coli [3] were 14.7 mm and <6 mm, respectively. Moreover, the IC50 in test [5] is > 200 µM. In addition, in test [5], the Ki is > 27.6 µM.

Consider `COc1ccc(C#Cc2ccc(C(=O)N3C[C@@H](O)C[C@H]3C(=O)NO)cc2)cc1`, for which the “diameter of the inhibition zone (DIZ)” value in the test on Enterobacter cloacae is given as 8 mm; in the test with Proteus mirabilis it was <6 mm; in the test on Proteus vulgaris, 9 mm; in the test with Escherichia coli [2], <6 mm; with Citrobacter freundii, 8 mm; with Klebsiella oxytoca, 7 mm. The “diameter of the inhibition zone (DIZ)” value with Klebsiella pneumoniae, in the test on Escherichia coli [3], in the test with Pseudomonas aeruginosa and in the test with Klebsiella aerogenes was <6 mm throughout. Besides, the results for the MIC against Escherichia coli [1] and in the test with Escherichia coli [4] were > 256 µM and 128 µM (≈ 48.7 µg/mL), respectively.

Consider `Nc1ccc(C#Cc2ccc(C(=O)N3C[C@H](O)C[C@H]3C(=O)NO)cc2)cc1`, for which the “diameter of the inhibition zone (DIZ)” value with Enterobacter cloacae is <6 mm; in the test on Proteus mirabilis it was 7 mm; in the test on Proteus vulgaris, <6 mm; in the test with Escherichia coli [2] it was 12.3 mm; in the test with Citrobacter freundii, <6 mm; in the test on Klebsiella oxytoca, 7 mm. The “diameter of the inhibition zone (DIZ)” value in the test with Klebsiella pneumoniae, in the test with Escherichia coli [3], in the test on Pseudomonas aeruginosa and with Klebsiella aerogenes was <6 mm each time. Moreover, the figures for the MIC in the test with Escherichia coli [1] and against Escherichia coli [4] were > 256 µM and 128 µM (≈ 46.8 µg/mL), respectively.

As for `O=C(NO)[C@@H]1C[C@H](F)CN1Cc1ccc(C#Cc2ccccc2)cc1`, the minimum inhibitory concentration (MIC) was > 256 µM in the test with Escherichia coli [1] and 128 µM (≈ 43.3 µg/mL) in the test with Escherichia coli [4]. Moreover, the “diameter of the inhibition zone (DIZ)” value is recorded as 10.7 mm in the test on Escherichia coli [2] and <6 mm with Escherichia coli [3]. Also, in [5], the concentration for half-maximal inhibition (IC50) was > 200 µM. Moreover, the Ki in [5] is > 27.6 µM.

With `Nc1ccc(C#Cc2ccc(C(=O)N3CCC[C@H]3C(=O)NO)cc2)cc1`, the “diameter of the inhibition zone (DIZ)” value is reported as <6 mm in the test on Enterobacter cloacae; <6 mm with Proteus mirabilis; <6 mm with Proteus vulgaris; 14.3 mm in the test on Escherichia coli [2]; 7 mm in the test on Citrobacter freundii; 7 mm with Klebsiella oxytoca. Further, the “diameter of the inhibition zone (DIZ)” value was <6 mm in the test on Klebsiella pneumoniae, 7.5 mm in the test with Escherichia coli [3], <6 mm with Pseudomonas aeruginosa and <6 mm with Klebsiella aerogenes. Moreover, the results for the MIC in the test on Escherichia coli [1] and in the test with Escherichia coli [4] were > 256 µM and 128 µM (≈ 44.7 µg/mL), respectively.

Take `N[C@H]1C[C@@H](C(=O)NO)N(C(=O)c2ccc(C#Cc3ccccc3)cc2)C1`: the “diameter of the inhibition zone (DIZ)” value in the test with Enterobacter cloacae is reported as 7 mm; with Proteus mirabilis, 8 mm; with Proteus vulgaris, <6 mm; in the test on Escherichia coli [2] it was 12.3 mm; in the test on Citrobacter freundii, 7 mm; in the test on Klebsiella oxytoca, 7 mm. Besides, the “diameter of the inhibition zone (DIZ)” value stood at 7 mm in the test on Klebsiella pneumoniae, 7.5 mm with Escherichia coli [3], 7 mm in the test on Pseudomonas aeruginosa and 7 mm in the test on Klebsiella aerogenes. Besides, the MIC in the test on Escherichia coli [1] was > 256 µM; against Escherichia coli [4], 128 µM (≈ 44.7 µg/mL).

Take `O=C(NO)[C@@H]1C[C@@H](O)CN1C(=O)c1ccc(C#Cc2ccc(F)cc2)cc1`: the figures for the MIC against Escherichia coli [1] and with Escherichia coli [4] were > 256 µM and 256 µM (≈ 94.3 µg/mL), respectively. For the same compound, the “diameter of the inhibition zone (DIZ)” value in the test with Escherichia coli [2] was 10.7 mm; in the test with Escherichia coli [3], <6 mm. For the same compound, the IC50 in test [5] is > 200 µM. In addition, the Ki in [5] was > 27.6 µM.
